{"source": "patent US9915650B2", "about": "“Method of detection of cAMP and cGMP via a fluorophore and dequencher complex” (HOFFMANN-LA-ROCHE INC., priority 2006, dated 2018)", "key": {"[1]": {"assay": "Quenching of free MR121 fluorescence by cyclic nucleotides and cAMP derivates (Stern-Volmer plot)", "type": "binding", "conditions": "for association constant, Ks, with MR121 / quenching of MR121 (decrease of fluorescence intensity, fluorescence lifetime): 20 nM MR121 in PBS, 30 min RT; for association constant, Ks, with MR121: calculated from linear region (up to 3.2 mM) of I0/I plot; for quenching of MR121 (decrease of fluorescence intensity, fluorescence lifetime): quencher 0-12.8 mM; for quenching of MR121 in low concentrations: concentrations up to 10 μM (range of cellular concentrations)", "protocol": "The fluorescent intensity was adjusted to about 60% of the maximal signal of the employed iCCD camera by using attenuation filters and varying exposure times.\n(§1) Fluorescence and lifetime were measured after an incubation time of 30 minutes at RT.\nIn order to analyze the quenching mechanism, measurements of fluorescence intensity and fluorescence lifetime of free MR121 as a function of different molecules (Trp, cAMP, 2-AHA-cAMP, 8-AHA-cAMP, 8-ADOA-cAMP, 2′-AEC-cAMP, N-6-Aminohexyl-cAMP, 8-MBT-cAMP and 8-OH-cAMP, see FIG. 4, 5) were carried out.\nas §1\nIn FIG. 5 the change in fluorescence intensity (I0/I) is plotted for all cAMP derivatives investigated."}, "[2]": {"assay": "Quenching of ATTO590 by 8-AHA-cAMP (Stern-Vollmer plot)", "type": "binding", "conditions": "20 nM ATTO590 in PBS, 30 min RT; linear region (up to 3.2 mM)", "protocol": "(§2) All fluorescence intensity measurements were carried out by means of a plate:vision fluorescence reader (Evotec Technologies GmbH, Schnackenburgallee 114, D-22525 Hamburg, Germany) equipped with a high pressure Xe arc lamp using for the measurements with MR121 an excitation filter at 630 nm (bandwidth 50 nm) and an emission filter at 695 nm (bandwidth 55 nm) and for the measurements with Atto 700 an excitation filter at 655 nm (bandwidth 50 nm) and an emission filter at 710 nm (bandwidth 40 nm). The fluorescent intensity was adjusted to about 60% of the maximal signal of the employed iCCD camera by using attenuation filters and varying exposure times. The lifetime measurements were performed by means of a plate:vision TRF reader (Evotec Technologies GmbH, Schnackenburgallee 114, D-22525 Hamburg, Germany) with an OPO system as light source (GWU Lasertechnik Vertriebsgesellschaft m.b.H., 50374 Erftstadt, Germany) tuned to 630 nm for excitation and the emission filter at 695 nm.\n(§3) 20 μl ATTO590 and ATTO655 respectively (in PBS, end concentration 20 nM) and 20 μl quencher (8-AHA-cAMP) in PBS (DMSO end concentration in the assay: 1.25%) were pipetted into a microtiter plate. Fluorescence and lifetime were measured after an incubation time of 30 minutes at RT. […] The association constant, Ks, was calculated from the linear region (up to 3.2 mM) of the plot."}, "[3]": {"assay": "Quenching of ATTO655 by 8-AHA-cAMP (Stern-Vollmer plot)", "type": "binding", "conditions": "20 nM ATTO655 in PBS, 30 min RT; linear region (up to 3.2 mM)", "protocol": "as §2, §3"}, "[4]": {"assay": "Solubility seen in the quenching plot (FIG. 5)", "type": "physicochemical", "conditions": "above ˜5 mM, PBS, deviation from linearity of I0/I plot", "from_the_text": "I0/I: change in fluorescence intensity"}, "[5]": {"biological_target": "anti-cAMP antibody", "assay": "cAMP/cGMP standard curves: displacement of tracer from anti-cAMP antibody, fluorescence readout", "type": "binding, mouse"}, "[6]": {"test_system": "CHO-K1 cells", "assay": "cAMP cellular assay, forskolin dose response curve", "type": "cell-based", "conditions": "Cricetulus griseus, 0.5 h; CHO-K1, 10,000 cells/well, 1 mM IBMX, 30 min at 37° C.", "protocol": "Cell numbers from 2, 500 to 20, 000 cell/well were plated in 25 μl medium and incubated for 20 h at 37° C. The medium was removed and after adding 10 μl of PBS with 0.1% BSA and 1 mM IBMX the cells were incubated for 60 minutes at 37° C. 10 μl of forskolin dilutions in PBS+0.1% BSA+1 mM IBMX from 0.01 to 300 μM (final concentration in 20 μl assay volume) were added and incubated for another 30 minutes at 37° C."}, "[7]": {"conditions": "literature value for tryptophane; cited from earlier work"}, "[8]": {"conditions": "20 nM MR121-2-AHA-cAMP tracer, 40 nM antibody, without cells (FIG. 14), read-out: IC50, comparison of standard curves for cAMP and cGMP"}}, "note": "Values joined by “and” are separate entries in the source; they are usually repeats but may differ in a detail not shown here. Equal values may be shown once. “Also recorded” adds a separate entry of the source. Read-outs that look alike come from different tables or passages of the source.", "data": [{"smiles": "NCCCCCCNc1nc(N)c2ncn([C@@H]3O[C@@H]4COP(=O)(O)O[C@H]4[C@H]3O)c2n1", "note": "[2-AHA-cAMP, 2-(6-Aminohexyl)amino-cAMP]", "values": [{"measurement": "association constant, Ks, with MR121", "setting": "[1]", "result": 512, "unit": "M⁻¹"}]}, {"smiles": "NCCOCCOCCNc1nc2c(N)ncnc2n1[C@@H]1O[C@@H]2COP(=O)(O)O[C@H]2[C@H]1O", "note": "[8-ADOA-cAMP, 8-(8-Amino-3,6-dioxaoctylamino)-cAMP]", "values": [{"measurement": "association constant, Ks, with MR121", "setting": "[1]", "result": 475, "unit": "M⁻¹"}]}, {"smiles": "NCCCCCCNc1nc2c(N)ncnc2n1[C@@H]1O[C@@H]2COP(=O)(O)O[C@H]2[C@H]1O", "note": "[8-AHA-cAMP, 8-(6-Aminohexyl)amino-cAMP]", "values": [{"measurement": "association constant, Ks, with MR121", "setting": "[1]", "result": 514, "unit": "M⁻¹"}, {"measurement": "association constant, Ks, with Atto590", "setting": "[2]", "result": 282, "unit": "M⁻¹"}, {"measurement": "association constant, Ks, with Atto655", "setting": "[3]", "result": 347, "unit": "M⁻¹"}, {"measurement": "solubility", "setting": "[4]", "result": "solubility problems"}]}, {"smiles": "Nc1ncnc2c1nc(SCCCCS)n2[C@@H]1O[C@@H]2COP(=O)(O)O[C@H]2[C@H]1O", "note": "[8-MBT-cAMP, 8-(4-Mercaptobutylthio)-cAMP]", "values": [{"measurement": "association constant, Ks, with MR121", "setting": "[1]", "result": 758, "unit": "M⁻¹"}]}, {"smiles": "Nc1ncnc2c1[nH]c(=O)n2C1OC2COP(=O)(O)OC2C1O", "note": "(stereo not shown) [8-OH-cAMP, 8-Hydroxy-cAMP]", "values": [{"measurement": "association constant, Ks, with MR121", "setting": "[1]", "result": 236, "unit": "M⁻¹"}]}, {"smiles": "NCCCCCCNc1ncnc2c1ncn2[C@@H]1O[C@@H]2COP(=O)(O)O[C@H]2[C@H]1O", "note": "[N-6-Aminohexyl-cAMP]", "values": [{"measurement": "quenching of MR121 (decrease of fluorescence intensity, fluorescence lifetime)", "setting": "[1]", "result": "no quenching at all"}]}, {"smiles": "Nc1ncnc2c1ncn2[C@@H]1O[C@@H]2COP(=O)(O)O[C@H]2[C@H]1O", "note": "[cAMP, cyclic adenosine monophosphate]", "values": [{"measurement": "quenching of MR121 (decrease of fluorescence intensity, fluorescence lifetime)", "setting": "[1]", "result": "no quenching at all"}, {"measurement": "quenching of MR121 in low concentrations", "setting": "[1]", "result": "neither cAMP nor cGMP quenches MR121; also recorded: neither cAMP nor cGMP quench the fluorophore"}, {"measurement": "IC50", "setting": "[5]; 5 nM Atto700-2-AHA-cAMP tracer, 5 nM antibody, without cells (FIG. 15), read-out: IC50, dose response curve with Atto700-2-AHA-cAMP tracer", "result": 48, "unit": "nM"}, {"measurement": "IC50", "setting": "[5]; [8]", "result": 134, "unit": "nM"}, {"measurement": "IC50", "setting": "[5]; 20 nM MR121-2-AHA-cAMP, 40 nM anti-cAMP antibody, 10'000 CHO-K1 cells/well, read-out: IC50, standard curve with cells", "result": "119 nM and 102 nM"}, {"measurement": "IC50", "setting": "[5]; 20 nM MR121-2-AHA-cAMP, 40 nM anti-cAMP antibody, without cells (FIG. 8), read-out: IC50, standard curve without cells", "result": 109, "unit": "nM"}]}, {"smiles": "Nc1nc2c(ncn2[C@@H]2O[C@@H]3COP(=O)(O)O[C@H]3[C@H]2O)c(=O)[nH]1", "note": "[cGMP, cyclic GMP]", "values": [{"measurement": "quenching of MR121 (decrease of fluorescence intensity, fluorescence lifetime)", "setting": "[1]", "result": "quenches MR121 at higher concentrations"}, {"measurement": "quenching of MR121 in low concentrations", "setting": "[1]", "result": "neither cAMP nor cGMP quenches MR121; also recorded: neither cAMP nor cGMP quench the fluorophore"}, {"measurement": "concentration at which the nucleotide has quenching capabilities", "setting": "[1]; fluorophore quenching", "result": "≥ 1", "unit": "mM"}, {"measurement": "IC50", "setting": "[5]; [8]", "result": 387, "unit": "nM"}]}, {"smiles": "C=C[C@@]1(C)CC(=O)[C@]2(O)[C@@]3(C)[C@@H](O)CCC(C)(C)[C@@H]3[C@H](O)[C@H](OC(C)=O)[C@@]2(C)O1", "note": "[forskolin]", "values": [{"measurement": "IC50", "setting": "[6]", "result": 3700, "unit": "nM"}]}, {"smiles": "N[C@@H](Cc1c[nH]c2ccccc12)C(=O)O", "note": "[tryptophane]", "values": [{"measurement": "quenching of MR121 (decrease of fluorescence intensity, fluorescence lifetime)", "setting": "[1]", "result": "decrease in fluorescence intensity without a change in fluorescence lifetime"}, {"measurement": "association constant Ks with MR121, reported in the literature", "setting": "[7]", "result": "~220", "unit": "M⁻¹"}]}]}
